Reference: US20260256792A1, “TREATMENT OF CHRONIC SPONTANEOUS URTICARIA BY ADMINISTERING (R)-2-[3-[4-AMINO-3-(2-FLUORO-4-PHENOXY-PHENYL)PYRAZOLO[3,4-D]PYRIMIDIN-1-YL]PIPERIDINE-1-CARBONYL]-4-METHYL-4-[4-(OXETAN-3-YL)PIPERAZIN-1-YL]PENT-2-ENENITRILE” (priority 2023, published 2026)

Test system: moderate-to-severe chronic spontaneous urticaria (CSU)
Experiment: Phase 2 CSU study: itch severity score over 7 days (ISS7)
Type: in vivo, human
Settings: for Non-responder n (%) (ISS7 reduction of 5 points or more) / OR for rilzabrutinib vs. placebo (ISS7 reduction of 5 points or more) / RRD (%) for rilzabrutinib vs. placebo (ISS7 reduction of 5 points or more) / Responder n (%) (ISS7 reduction of 5 points or more) / Imputed non-responder n (%) (ISS7 reduction of 5 points or more): ITT population
Source text: The study comprises a 12 week, randomized, double-blind, placebo-controlled, multi-center, dose-ranging efficacy and safety phase, followed by a 40 week open label extension (OLE) phase (see FIG. 1). The study consists of three phases and an optional OLE phase. […] Clinically, CSU is characterized by the spontaneous and recurrent appearance of pruritic hives. The proposed primary endpoints were the UAS7 at Week 12 in EU and EU reference countries and the ISS7 in the US. Regardless of where a participant was from, all assessments were the same. The UAS7 score is a composite score containing both the HSS7 and the ISS7. This allowed a global assessment of the two key components of urticaria: hives and itch. […] The UAS is a validated PRO measure. […] The daily UAS scores range from 0 to 6 point/day. […] Patients were to complete the UAS using the e-diary. […] The following secondary endpoints were to be analyzed using the same approach as for the primary endpoint: • Change from baseline in UAS7 at Week 4 • Change from baseline in UAS7 at Week 12 (for US and US reference countries) • Change from baseline in ISS7 at Week 12 (except US and US reference countries) • Change from baseline in HSS7 at Week 12

Compound: CC(C)(C=C(C#N)C(=O)N1CCC[C@@H](n2nc(-c3ccc(Oc4ccccc4)cc3F)c3c(N)ncnc32)C1)N1CCN(C2COC2)CC1 [rilzabrutinib, (R)-2-[3-[4-amino-3-(2-fluoro-4-phenoxy-phenyl)pyrazolo[3,4-d]pyrimidin-1-yl]piperidine-1-carbonyl]-4-methyl-4-[4-(oxetan-3-yl)piperazin-1-yl]pent-2-enenitrile]
- Non-responder n (%) (ISS7 reduction of 5 points or more) (400 mg QPM, Week 4): 20 (52.6) n (%)
- OR for rilzabrutinib vs. placebo (ISS7 reduction of 5 points or more) (400 mg QPM, Week 4): 1.076
- RRD (%) for rilzabrutinib vs. placebo (ISS7 reduction of 5 points or more) (400 mg QPM, Week 4): 1.7%
- Responder n (%) (ISS7 reduction of 5 points or more) (400 mg QPM, Week 4): 18 (47.4) n (%)
- Non-responder n (%) (ISS7 reduction of 5 points or more) (400 mg QPM, Week 6): 20 (52.6) n (%)
- OR for rilzabrutinib vs. placebo (ISS7 reduction of 5 points or more) (400 mg QPM, Week 6): 1.066
- RRD (%) for rilzabrutinib vs. placebo (ISS7 reduction of 5 points or more) (400 mg QPM, Week 6): 1.5%
- Responder n (%) (ISS7 reduction of 5 points or more) (400 mg QPM, Week 6): 18 (47.4) n (%)
- Imputed non-responder n (%) (ISS7 reduction of 5 points or more) (400 mg QPM, Week 7): 6 (15.8) n (%)
- Non-responder n (%) (ISS7 reduction of 5 points or more) (400 mg QPM, Week 7): 19 (50.0) n (%)
- OR for rilzabrutinib vs. placebo (ISS7 reduction of 5 points or more) (400 mg QPM, Week 7): 1.138
- RRD (%) for rilzabrutinib vs. placebo (ISS7 reduction of 5 points or more) (400 mg QPM, Week 7): 3.1%
- Responder n (%) (ISS7 reduction of 5 points or more) (400 mg QPM, Week 7): 19 (50.0) n (%)
- Imputed non-responder n (%) (ISS7 reduction of 5 points or more) (400 mg QPM, Week 8): 7 (18.4) n (%)
- Non-responder n (%) (ISS7 reduction of 5 points or more) (400 mg QPM, Week 8): 20 (52.6) n (%)
- OR for rilzabrutinib vs. placebo (ISS7 reduction of 5 points or more) (400 mg QPM, Week 8): 0.836
- RRD (%) for rilzabrutinib vs. placebo (ISS7 reduction of 5 points or more) (400 mg QPM, Week 8): −4.5%
- Responder n (%) (ISS7 reduction of 5 points or more) (400 mg QPM, Week 8): 18 (47.4) n (%)
- Imputed non-responder n (%) (ISS7 reduction of 5 points or more) (400 mg QPM, Week 9): 6 (15.8) n (%)
- Non-responder n (%) (ISS7 reduction of 5 points or more) (400 mg QPM, Week 9): 18 (47.4) n (%)
- OR for rilzabrutinib vs. placebo (ISS7 reduction of 5 points or more) (400 mg QPM, Week 9): 1.294
- RRD (%) for rilzabrutinib vs. placebo (ISS7 reduction of 5 points or more) (400 mg QPM, Week 9): 5.8%
- Responder n (%) (ISS7 reduction of 5 points or more) (400 mg QPM, Week 9): 20 (52.6) n (%)
- Imputed non-responder n (%) (ISS7 reduction of 5 points or more) (400 mg QPM, Week 10): 6 (15.8) n (%)
- Non-responder n (%) (ISS7 reduction of 5 points or more) (400 mg QPM, Week 10): 14 (36.8) n (%)
- OR for rilzabrutinib vs. placebo (ISS7 reduction of 5 points or more) (400 mg QPM, Week 10): 1.593
- Responder n (%) (ISS7 reduction of 5 points or more) (400 mg QPM, Week 10): 24 (63.2) n (%)
- Imputed non-responder n (%) (ISS7 reduction of 5 points or more) (400 mg QPM, Week 11): 7 (18.4) n (%)
- Non-responder n (%) (ISS7 reduction of 5 points or more) (400 mg QPM, Week 11): 17 (44.7) n (%)
- OR for rilzabrutinib vs. placebo (ISS7 reduction of 5 points or more) (400 mg QPM, Week 11): 0.938
- RRD (%) for rilzabrutinib vs. placebo (ISS7 reduction of 5 points or more) (400 mg QPM, Week 11): −1.5%
- Responder n (%) (ISS7 reduction of 5 points or more) (400 mg QPM, Week 11): 21 (55.3) n (%)
- Imputed non-responder n (%) (ISS7 reduction of 5 points or more) (400 mg QPM, Week 12): 10 (26.3) n (%)
- Non-responder n (%) (ISS7 reduction of 5 points or more) (400 mg QPM, Week 12): 21 (55.3) n (%)
- OR for rilzabrutinib vs. placebo (ISS7 reduction of 5 points or more) (400 mg QPM, Week 12): 0.905
- RRD (%) for rilzabrutinib vs. placebo (ISS7 reduction of 5 points or more) (400 mg QPM, Week 12): −2.6%
- Responder n (%) (ISS7 reduction of 5 points or more) (400 mg QPM, Week 12): 17 (44.7) n (%)
- Imputed non-responder n (%) (ISS7 reduction of 5 points or more) (400 mg TID, Week 2): 0 n (%)
- Non-responder n (%) (ISS7 reduction of 5 points or more) (400 mg TID, Week 2): 13 (31.7) n (%)
- OR for rilzabrutinib vs. placebo (ISS7 reduction of 5 points or more) (400 mg TID, Week 2): 4.772
- RRD (%) for rilzabrutinib vs. placebo (ISS7 reduction of 5 points or more) (400 mg TID, Week 2): 35.9%
- Responder n (%) (ISS7 reduction of 5 points or more) (400 mg TID, Week 2): 28 (68.3) n (%)
- Imputed non-responder n (%) (ISS7 reduction of 5 points or more) (400 mg TID, Week 3): 0 n (%)
- Non-responder n (%) (ISS7 reduction of 5 points or more) (400 mg TID, Week 3): 12 (29.3) n (%)
- OR for rilzabrutinib vs. placebo (ISS7 reduction of 5 points or more) (400 mg TID, Week 3): 4.110
- RRD (%) for rilzabrutinib vs. placebo (ISS7 reduction of 5 points or more) (400 mg TID, Week 3): 37.3%
- Responder n (%) (ISS7 reduction of 5 points or more) (400 mg TID, Week 3): 29 (70.7) n (%)
- Imputed non-responder n (%) (ISS7 reduction of 5 points or more) (400 mg TID, Week 4): 3 (7.3) n (%)
- Non-responder n (%) (ISS7 reduction of 5 points or more) (400 mg TID, Week 4): 13 (31.7) n (%)
- OR for rilzabrutinib vs. placebo (ISS7 reduction of 5 points or more) (400 mg TID, Week 4): 2.155
- RRD (%) for rilzabrutinib vs. placebo (ISS7 reduction of 5 points or more) (400 mg TID, Week 4): 18.8%
- Responder n (%) (ISS7 reduction of 5 points or more) (400 mg TID, Week 4): 28 (68.3) n (%)
- Imputed non-responder n (%) (ISS7 reduction of 5 points or more) (400 mg TID, Week 5): 3 (7.3) n (%)
- Non-responder n (%) (ISS7 reduction of 5 points or more) (400 mg TID, Week 5): 11 (26.8) n (%)
- OR for rilzabrutinib vs. placebo (ISS7 reduction of 5 points or more) (400 mg TID, Week 5): 2.433
- RRD (%) for rilzabrutinib vs. placebo (ISS7 reduction of 5 points or more) (400 mg TID, Week 5): 20.9%
- Responder n (%) (ISS7 reduction of 5 points or more) (400 mg TID, Week 5): 30 (73.2) n (%)
- Imputed non-responder n (%) (ISS7 reduction of 5 points or more) (400 mg TID, Week 6): 5 (12.2) n (%)
- Non-responder n (%) (ISS7 reduction of 5 points or more) (400 mg TID, Week 6): 16 (39.0) n (%)
- OR for rilzabrutinib vs. placebo (ISS7 reduction of 5 points or more) (400 mg TID, Week 6): 1.574
- Responder n (%) (ISS7 reduction of 5 points or more) (400 mg TID, Week 6): 25 (61.0) n (%)
- Imputed non-responder n (%) (ISS7 reduction of 5 points or more) (400 mg TID, Week 7): 6 (14.6) n (%)
- Non-responder n (%) (ISS7 reduction of 5 points or more) (400 mg TID, Week 7): 14 (34.1) n (%)
- OR for rilzabrutinib vs. placebo (ISS7 reduction of 5 points or more) (400 mg TID, Week 7): 2.038
- RRD (%) for rilzabrutinib vs. placebo (ISS7 reduction of 5 points or more) (400 mg TID, Week 7): 16.8%
- Responder n (%) (ISS7 reduction of 5 points or more) (400 mg TID, Week 7): 27 (65.9) n (%)
- Imputed non-responder n (%) (ISS7 reduction of 5 points or more) (400 mg TID, Week 8): 8 (19.5) n (%)
- Non-responder n (%) (ISS7 reduction of 5 points or more) (400 mg TID, Week 8): 13 (31.7) n (%)
- OR for rilzabrutinib vs. placebo (ISS7 reduction of 5 points or more) (400 mg TID, Week 8): 1.839
- RRD (%) for rilzabrutinib vs. placebo (ISS7 reduction of 5 points or more) (400 mg TID, Week 8): 14.6%
- Responder n (%) (ISS7 reduction of 5 points or more) (400 mg TID, Week 8): 28 (68.3) n (%)
- Imputed non-responder n (%) (ISS7 reduction of 5 points or more) (400 mg TID, Week 9): 7 (17.1) n (%)
- Non-responder n (%) (ISS7 reduction of 5 points or more) (400 mg TID, Week 9): 12 (29.3) n (%)
- OR for rilzabrutinib vs. placebo (ISS7 reduction of 5 points or more) (400 mg TID, Week 9): 2.730
- RRD (%) for rilzabrutinib vs. placebo (ISS7 reduction of 5 points or more) (400 mg TID, Week 9): 22.5%
- Responder n (%) (ISS7 reduction of 5 points or more) (400 mg TID, Week 9): 29 (70.7) n (%)
- Imputed non-responder n (%) (ISS7 reduction of 5 points or more) (400 mg TID, Week 10): 7 (17.1) n (%)
- Non-responder n (%) (ISS7 reduction of 5 points or more) (400 mg TID, Week 10): 14 (34.1) n (%)
- OR for rilzabrutinib vs. placebo (ISS7 reduction of 5 points or more) (400 mg TID, Week 10): 1.669
- Responder n (%) (ISS7 reduction of 5 points or more) (400 mg TID, Week 10): 27 (65.9) n (%)
- Imputed non-responder n (%) (ISS7 reduction of 5 points or more) (400 mg TID, Week 11): 6 (14.6) n (%)
- Non-responder n (%) (ISS7 reduction of 5 points or more) (400 mg TID, Week 11): 12 (29.3) n (%)
- OR for rilzabrutinib vs. placebo (ISS7 reduction of 5 points or more) (400 mg TID, Week 11): 1.699
- Responder n (%) (ISS7 reduction of 5 points or more) (400 mg TID, Week 11): 29 (70.7) n (%)
- ISS7 % Change difference for rilzabrutinib vs. placebo LS Mean (95% CI) (ITT, 400 mg BID, Week 1): −23.55%
- ISS7 % Change from baseline LS Mean (SE) (ITT, 400 mg BID, Week 1): −34.02 (5.28) %
- ISS7 Change difference for rilzabrutinib vs. placebo LS Mean (95% CI) (ITT, 400 mg BID, Week 1): −3.23
- ISS7 Change from baseline LS Mean (SE) (ITT, 400 mg BID, Week 1): −5.23 (0.78)
- ISS7 Post-baseline Mean (SD) (ITT, 400 mg BID, Week 1): 10.65 (5.86)
- ISS7 % Change difference for rilzabrutinib vs. placebo LS Mean (95% CI) (ITT, 400 mg BID, Week 2): −16.63%
- ISS7 % Change from baseline LS Mean (SE) (ITT, 400 mg BID, Week 2): −36.11 (5.26) %
